ChEMBL document CHEMBL3714760, “Substituted pyrrolo[2,3b]pyrazines and methods for treatment of raf protein kinase-mediated indications” (2012)

Legend:
[1] = biological target: T1, Serine/threonine-protein kinase A-Raf (Homo sapiens, UniProt P10398); test: Inhibition of A-raf (unknown origin)
T1 sequence (P10398 whole entry): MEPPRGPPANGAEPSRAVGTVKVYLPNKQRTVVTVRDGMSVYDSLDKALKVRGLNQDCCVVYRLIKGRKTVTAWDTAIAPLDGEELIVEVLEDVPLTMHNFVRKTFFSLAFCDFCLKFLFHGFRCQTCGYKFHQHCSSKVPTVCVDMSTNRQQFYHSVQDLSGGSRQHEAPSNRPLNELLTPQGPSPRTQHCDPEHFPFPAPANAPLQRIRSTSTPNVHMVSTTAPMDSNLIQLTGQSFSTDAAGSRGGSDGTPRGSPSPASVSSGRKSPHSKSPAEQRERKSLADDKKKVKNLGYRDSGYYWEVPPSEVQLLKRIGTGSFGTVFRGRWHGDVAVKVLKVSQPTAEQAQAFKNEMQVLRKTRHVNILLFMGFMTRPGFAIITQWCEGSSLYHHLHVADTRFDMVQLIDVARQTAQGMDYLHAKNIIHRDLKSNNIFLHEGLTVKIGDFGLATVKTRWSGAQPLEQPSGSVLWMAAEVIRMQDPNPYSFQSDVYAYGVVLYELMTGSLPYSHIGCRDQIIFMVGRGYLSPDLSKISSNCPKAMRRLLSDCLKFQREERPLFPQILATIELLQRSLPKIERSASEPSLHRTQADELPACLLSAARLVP

[2] = biological target: Serine/threonine-protein kinase B-raf (Homo sapiens, UniProt P15056); test: Inhibition of N-terminal GST-tagged human recombinant B-Raf (416 to end residues) using biotin-MEKl substrate incubated for 1 hr
Sequence of Serine/threonine-protein kinase B-raf (P15056 whole entry): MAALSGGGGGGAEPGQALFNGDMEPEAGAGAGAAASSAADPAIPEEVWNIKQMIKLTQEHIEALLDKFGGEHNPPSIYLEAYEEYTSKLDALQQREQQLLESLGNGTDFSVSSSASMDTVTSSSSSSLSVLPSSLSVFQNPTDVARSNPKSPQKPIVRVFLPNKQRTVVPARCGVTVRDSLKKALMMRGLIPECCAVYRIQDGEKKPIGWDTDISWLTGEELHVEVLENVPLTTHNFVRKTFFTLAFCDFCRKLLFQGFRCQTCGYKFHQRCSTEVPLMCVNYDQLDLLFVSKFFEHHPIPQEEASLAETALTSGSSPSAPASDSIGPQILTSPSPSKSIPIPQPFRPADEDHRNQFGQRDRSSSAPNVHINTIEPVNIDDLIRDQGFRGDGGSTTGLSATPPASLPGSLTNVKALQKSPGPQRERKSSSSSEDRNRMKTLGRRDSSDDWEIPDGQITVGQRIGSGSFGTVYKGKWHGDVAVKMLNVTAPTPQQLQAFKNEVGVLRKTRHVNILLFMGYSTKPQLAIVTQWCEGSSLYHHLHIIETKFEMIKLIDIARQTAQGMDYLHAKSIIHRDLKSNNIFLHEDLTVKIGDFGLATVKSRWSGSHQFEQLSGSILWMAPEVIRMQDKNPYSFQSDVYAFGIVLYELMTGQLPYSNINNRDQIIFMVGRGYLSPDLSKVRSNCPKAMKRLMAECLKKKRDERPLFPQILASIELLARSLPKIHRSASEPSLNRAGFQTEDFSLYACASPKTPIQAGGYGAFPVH

[3] = biological target: RAF proto-oncogene serine/threonine-protein kinase (Homo sapiens, UniProt P04049); test: Inhibition of human C-raf using biotin-MEKl substrate incubated for 1 hr
Sequence of RAF proto-oncogene serine/threonine-protein kinase (P04049 whole entry): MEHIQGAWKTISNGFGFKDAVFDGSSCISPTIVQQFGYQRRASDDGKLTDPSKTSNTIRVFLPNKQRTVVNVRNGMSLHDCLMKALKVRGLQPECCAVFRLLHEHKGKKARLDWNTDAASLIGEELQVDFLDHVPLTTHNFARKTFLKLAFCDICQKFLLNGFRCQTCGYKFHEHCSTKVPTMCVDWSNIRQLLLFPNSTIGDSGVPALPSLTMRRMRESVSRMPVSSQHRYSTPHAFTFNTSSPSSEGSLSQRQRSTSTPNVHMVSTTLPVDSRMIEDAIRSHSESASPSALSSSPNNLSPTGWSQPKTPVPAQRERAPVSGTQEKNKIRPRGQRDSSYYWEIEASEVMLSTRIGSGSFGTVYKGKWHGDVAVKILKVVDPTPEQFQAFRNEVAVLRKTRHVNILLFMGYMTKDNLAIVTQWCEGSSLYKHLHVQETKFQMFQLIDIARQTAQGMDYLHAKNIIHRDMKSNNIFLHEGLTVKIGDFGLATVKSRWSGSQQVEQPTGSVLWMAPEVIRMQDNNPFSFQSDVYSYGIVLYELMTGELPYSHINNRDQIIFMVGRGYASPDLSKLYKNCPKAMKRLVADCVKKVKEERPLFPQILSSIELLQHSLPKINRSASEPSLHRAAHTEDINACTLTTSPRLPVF

[4] = biological target: Proto-oncogene tyrosine-protein kinase Src (Homo sapiens, UniProt P12931); test: Inhibition of Src (unknown origin) expressed in Escherichia coli using biotin-(E4Y)3 substrate
Sequence of Proto-oncogene tyrosine-protein kinase Src (P12931 2-536 limits assumed): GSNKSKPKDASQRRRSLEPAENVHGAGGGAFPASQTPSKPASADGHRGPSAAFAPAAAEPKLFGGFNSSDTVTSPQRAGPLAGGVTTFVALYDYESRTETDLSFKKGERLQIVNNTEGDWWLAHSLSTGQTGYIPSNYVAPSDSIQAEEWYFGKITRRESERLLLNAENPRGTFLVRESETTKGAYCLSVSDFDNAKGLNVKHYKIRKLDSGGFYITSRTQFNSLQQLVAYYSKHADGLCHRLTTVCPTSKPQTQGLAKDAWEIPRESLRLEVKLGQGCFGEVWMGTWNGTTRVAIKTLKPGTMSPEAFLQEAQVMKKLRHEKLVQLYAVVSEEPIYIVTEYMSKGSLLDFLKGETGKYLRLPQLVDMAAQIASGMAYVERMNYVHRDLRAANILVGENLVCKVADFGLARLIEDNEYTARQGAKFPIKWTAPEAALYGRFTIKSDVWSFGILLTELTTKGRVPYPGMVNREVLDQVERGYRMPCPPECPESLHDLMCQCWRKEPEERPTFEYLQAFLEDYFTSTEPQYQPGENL

[5] = biological target: Vascular endothelial growth factor receptor 2 (Homo sapiens, UniProt P35968); test: Inhibition of KDR (unknown origin)
Sequence of Vascular endothelial growth factor receptor 2 (P35968 whole entry): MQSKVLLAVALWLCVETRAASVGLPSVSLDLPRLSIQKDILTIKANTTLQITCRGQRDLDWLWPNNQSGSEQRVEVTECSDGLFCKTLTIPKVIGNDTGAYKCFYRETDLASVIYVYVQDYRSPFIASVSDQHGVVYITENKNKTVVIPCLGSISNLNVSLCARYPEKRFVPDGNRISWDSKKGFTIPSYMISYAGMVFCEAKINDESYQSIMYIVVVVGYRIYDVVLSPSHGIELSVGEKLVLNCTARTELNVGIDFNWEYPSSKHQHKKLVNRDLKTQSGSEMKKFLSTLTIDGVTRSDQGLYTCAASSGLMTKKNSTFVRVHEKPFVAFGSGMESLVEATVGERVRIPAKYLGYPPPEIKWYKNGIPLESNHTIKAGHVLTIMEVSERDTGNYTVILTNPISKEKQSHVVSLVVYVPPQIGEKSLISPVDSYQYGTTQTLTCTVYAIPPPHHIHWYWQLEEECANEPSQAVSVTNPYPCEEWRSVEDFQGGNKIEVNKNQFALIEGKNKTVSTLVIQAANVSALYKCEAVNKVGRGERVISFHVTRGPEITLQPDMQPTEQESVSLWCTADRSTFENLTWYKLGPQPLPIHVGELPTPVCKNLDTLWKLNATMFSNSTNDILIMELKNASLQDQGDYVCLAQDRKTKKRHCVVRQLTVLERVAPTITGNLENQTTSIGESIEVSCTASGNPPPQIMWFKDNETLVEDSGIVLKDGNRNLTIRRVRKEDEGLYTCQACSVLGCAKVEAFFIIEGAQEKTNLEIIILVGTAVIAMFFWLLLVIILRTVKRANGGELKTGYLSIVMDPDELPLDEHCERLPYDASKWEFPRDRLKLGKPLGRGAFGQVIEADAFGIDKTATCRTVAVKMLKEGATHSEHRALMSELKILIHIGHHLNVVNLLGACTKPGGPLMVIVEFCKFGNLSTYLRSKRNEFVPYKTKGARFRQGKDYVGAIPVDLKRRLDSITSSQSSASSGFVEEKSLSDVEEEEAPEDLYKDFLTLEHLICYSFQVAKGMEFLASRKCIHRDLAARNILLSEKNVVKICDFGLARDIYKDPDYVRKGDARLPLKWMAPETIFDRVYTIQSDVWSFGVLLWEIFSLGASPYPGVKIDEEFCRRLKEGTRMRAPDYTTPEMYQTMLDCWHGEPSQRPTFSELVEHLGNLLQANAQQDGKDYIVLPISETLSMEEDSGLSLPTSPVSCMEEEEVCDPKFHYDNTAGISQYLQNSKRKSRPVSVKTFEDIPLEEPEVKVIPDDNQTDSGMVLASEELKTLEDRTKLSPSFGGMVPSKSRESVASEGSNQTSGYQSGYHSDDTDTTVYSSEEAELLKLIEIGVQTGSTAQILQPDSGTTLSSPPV

IC50 [1] [µM] | IC50 [2] [µM] | IC50 [3] [µM] | IC50 [4] [µM] | IC50 [5] [µM] | Compound
≤ 10 | ≤ 10 | ≤ 10 |  |  | CCCS(=O)(=O)Nc1ccc(F)c(C(=O)c2c[nH]c3nccnc23)c1F
 |  |  | ≤ 10 |  | CCCS(=O)(=O)Nc1ccc(F)c(C(=O)c2c[nH]c3ncc(C#N)nc23)c1F
≤ 10 | ≤ 10 | ≤ 10 |  |  | CCCS(=O)(=O)Nc1ccc(F)c(C(=O)c2c[nH]c3ncc(-c4cnc(OC)nc4)nc23)c1F
≤ 10 | ≤ 10 | ≤ 10 |  |  | O=C(c1cccc(NS(=O)(=O)c2ccc(C(F)(F)F)cc2)c1F)c1c[nH]c2nccnc12
 |  |  | ≤ 10 | ≤ 10 | CCCS(=O)(=O)Nc1ccc(F)c(C(=O)c2c[nH]c3ncc(-c4cnn(C)c4)nc23)c1F

Compound | IC50 [1] [µM] | IC50 [2] [µM] | IC50 [3] [µM] | IC50 [4] [µM] | IC50 [5] [µM]
CCCS(=O)(=O)Nc1ccc(F)c(C(=O)c2c[nH]c3ncc(Br)nc23)c1F | ≤ 10 |  | ≤ 10 |  | 
O=C(c1c(F)ccc(NS(=O)(=O)c2ccc(C(F)(F)F)cc2)c1F)c1c[nH]c2nccnc12 | ≤ 10 |  | ≤ 10 |  | 
